Literature values in patent US20060099690A1, “Extraction, purification and conversion of flavonoids from plant biomass” (Her Majesty the Queen in Right of Canada, as Repre, priority 2002, published 2006).

Key:
[1] = tested on: mouse hippocampal cell line HT-22 and rat primary neurons; conditions: HT-22 cells and rat primary neurons
[2] = four hours after a meal; hydrolyzed plasma; 3'- and 4'-methylquercetin
pain transmission = conditions: antinociceptive activity
serum triglycerides = conditions: 0.5% quercetin in diet; mice or rats

Structure (SMILES) | protection from oxidative stress caused by glutamate [1] | total concentration of metabolites in the plasma [2] | dose with the same effect as 2.5 mg of morphine sulfate/Kg (pain transmission) [mg/Kg body weight] | effect on serum triglycerides (serum triglycerides)
O=c1cc(-c2ccc(O)cc2)oc2cc(O)cc(O)c12 [apigenim] | inactive |  |  | 
O=c1c(O)c(-c2ccc(O)c(O)c2)oc2cc(O)ccc12 [fisetin] | quite protective |  |  | 
O=c1c(O[C@@H]2O[C@H](CO)[C@@H](O)[C@H](O)[C@H]2O)c(-c2ccc(O)c(O)c2)oc2cc(O)cc(O)c12 [isoquercitrin, quercetin-3-O-beta glycoside] |  | 33.2 µM |  | 
O=c1c(O)c(-c2ccc(O)cc2)oc2cc(O)cc(O)c12 [kaempferol] | quite protective |  |  | 
O=c1c(O)c(-c2ccc(O)c(O)c2)oc2cc(O)cc(O)c12 [quercetin] | quite protective | 11.2 µM | 50 | significant lowering
C[C@@H]1O[C@@H](Oc2c(-c3ccc(O)c(O)c3)oc3cc(O)cc(O)c3c2=O)[C@H](O)[C@H](O)[C@H]1O [quercitrin, quercetin 3-rhamnoside, reference compound] |  | failed to detect any metabolites |  | 
C[C@@H]1O[C@@H](OC[C@H]2O[C@@H](Oc3c(-c4ccc(O)c(O)c4)oc4cc(O)cc(O)c4c3=O)[C@H](O)[C@@H](O)[C@@H]2O)[C@H](O)[C@H](O)[C@H]1O [rutin] |  | 2.5 µM |  | 
